ChEMBL document CHEMBL5528012, “Discovery of novel deoxyvasicinone derivatives with benzenesulfonamide substituents as multifunctional agents against Alzheimer's disease” (Eur J Med Chem, 2024)
Active and inactive are the calls of the source. The calls are words filed in the database; no cut-off is given here.

Columns and labels:
[1] = molecular target: Cholinesterase (Equus caballus, UniProt P81908); test: Inhibition of equine serum BuChE using S-butyrylthiocholine iodide as substrate pre-incubated for 30 mins followed by substrate addition and measured after 5 mins by DTNB reagent based Ellman's method
[2] = molecular target: T1, Acetylcholinesterase (Electrophorus electricus, UniProt O42275); test: Inhibition of electric eel AChE using acetylthiocholine iodide as substrate pre-incubated for 30 mins followed by substrate addition and measured after 5 mins by DTNB reagent based Ellman's method
[3] = molecular target: Acetylcholinesterase (Homo sapiens, UniProt P22303); test: Inhibition of AChE (unknown origin)
[4] = in vitro; details: PAMPA, pH 7.4
Description: Permeability of the compound at 30 to 50 uM at pH 7.4 by PAMPA-BBB assay

[5] = test system: BV-2; test: Anti-neuroinflammatory activity against LPS-induced mouse BV-2 cells assessed as decrease in COX-2 protein expression pre-incubated for 1 hr followed by LPS addition and measured after 24 hrs by Western blotting analysis; assay type: functional, cell-based; details: dose 1-10 µM
[6] = Acute toxicity in C57BL mouse assessed as lung damage upto 2000 mg/kg, po administered as single dose and measured after 2 weeks by hematoxylin and eosin staining based analysis; assay type: organism-based; details: in vivo, 336 h
[7] = test system: Mus musculus; test: Antialzheimer activity in scopolamine-induced C57BL mouse model assessed as prevention of blurred borders in cortical cells of hippocampal region at 10 to 30 mg/kg, po administered for 7 days followed by scopolamine administration by hematoxylin and eosin staining based analysis; assay type: functional, organism-based; details: dose 10-30 mg/kg
[8] = test system: Mus musculus; test: Antialzheimer activity in scopolamine-induced C57BL mouse model assessed as increase in residence time in platform area at 30 mg/kg, po administered for 7 days followed by scopolamine administration and measured after 5 days by Morris water maze test; assay type: functional, organism-based; details: time 12.0 day
[9] = Acute toxicity in C57BL mouse assessed as heart damage upto 2000 mg/kg, po administered as single dose and measured after 2 weeks by hematoxylin and eosin staining based analysis; assay type: organism-based; details: in vivo, 336 h
[10] = test system: BV-2; test: Anti-neuroinflammatory activity against LPS-induced mouse BV-2 cells assessed as inhibition of IL-1beta production pre-incubated for 1 hr followed by LPS addition and measured after 24 hrs by ELISA; assay type: functional, cell-based
[11] = test system: Mus musculus; test: Antialzheimer activity in scopolamine-induced C57BL mouse model assessed as decrease in escape latency at 10 to 30 mg/kg, po administered for 7 days followed by scopolamine administration and measured after 4 days by Morris water maze test; assay type: functional, organism-based; details: dose 10-30 mg/kg, time 11.0 day
[12] = Toxicity in C57BL mouse assessed as change in body weight at 10 to 30 mg/kg, po measured after 7 days; assay type: organism-based; details: in vivo, 168 h, dose 10-30 mg/kg, time 7 day
[13] = test system: BV-2; test: Anti-neuroinflammatory activity against LPS-induced mouse BV-2 cells assessed as inhibition of NO production pre-incubated for 1 hr followed by LPS addition and measured after 24 hrs by Griess reagent based assay; assay type: functional, cell-based
[14] = Metal chelating activity assessed as Cu2+-compound complex formation by measuring drop in intensity of absorption curve at 50 uM incubated for 1 hr in presence of CuCl2 by UV-Visible spectrophotometry
[15] = test system: BV-2; test: Anti-neuroinflammatory activity against LPS-induced mouse BV-2 cells assessed as inhibition of TNF-alpha production pre-incubated for 1 hr followed by LPS addition and measured after 24 hrs by ELISA; assay type: functional, cell-based
[16] = test system: Mus musculus; test: Antialzheimer activity in scopolamine-induced C57BL mouse model assessed as prevention of irregular cellular arrangements in cortical cells of hippocampal region at 10 to 30 mg/kg, po administered for 7 days followed by scopolamine administration by hematoxylin and eosin staining based analysis; assay type: functional, organism-based; details: dose 10-30 mg/kg
[17] = Hepatotoxicity in mouse AML12 cells assessed as reduction in cell viability at 20 to 100 uM incubated for 24 hrs by MTT assay; assay type: toxicity, cell-based; details: aml12, 24 h, dose 20-100 µM
[18] = Metal chelating activity assessed as Zn2+-compound complex formation by measuring blue shift in maximum absorption wavelength at 50 uM incubated for 1 hr in presence of ZnCl2 by UV-Visible spectrophotometry
[19] = test system: PC-12; test: Cytotoxicity against rat PC12 cells assessed as reduction in cell viability at 20 to 50 uM incubated for 24 hrs by MTT assay; assay type: toxicity, cell-based; details: pc-12, 24 h, dose 20-50 µM
[20] = Acute toxicity in C57BL mouse assessed as spleen damage upto 2000 mg/kg, po administered as single dose and measured after 2 weeks by hematoxylin and eosin staining based analysis; assay type: organism-based; details: in vivo, 336 h
[21] = test system: BV-2; test: Cytotoxicity against mouse BV-2 cells assessed as reduction in cell viability at 20 to 50 uM incubated for 24 hrs by MTT assay; assay type: toxicity, cell-based; details: bv-2, 24 h, dose 20-50 µM
[22] = test system: BV-2; test: Anti-neuroinflammatory activity against LPS-induced mouse BV-2 cells assessed as decrease in iNOS protein expression pre-incubated for 1 hr followed by LPS addition and measured after 24 hrs by Western blotting analysis; assay type: functional, cell-based; details: dose 1-10 µM, time 25.0 hrs
[23] = test system: Mus musculus; test: Antialzheimer activity in scopolamine-induced C57BL mouse model assessed as increase in crossing frequency in platform area at 30 mg/kg, po administered for 7 days followed by scopolamine administration and measured after 5 days by Morris water maze test; assay type: functional, organism-based; details: time 12.0 day
[24] = test system: Mus musculus; test: Antialzheimer activity in scopolamine-induced C57BL mouse model assessed as effect on swimming speed at 10 to 30 mg/kg, po administered for 7 days followed by scopolamine administration and measured after 4 days by Morris water maze test; assay type: functional, organism-based; details: dose 10-30 mg/kg, time 11.0 day
[25] = molecular target: Acetylcholinesterase (Electrophorus electricus) (UniProt O42275); test: Mixed type inhibition of electric eel AChE using acetylthiocholine iodide as substrate pre-incubated for 30 mins followed by substrate addition and measured after 5 mins by DTNB reagent based Ellman's method; details: dose 0-0.4 µM, time 35.0 min
[26] = Metal chelating activity assessed as Cu2+-compound complex formation by measuring red shift in maximum absorption wavelength at 50 uM incubated for 1 hr in presence of CuCl2 by UV-Visible spectrophotometry
[27] = Acute toxicity in C57BL mouse assessed as kidney damage upto 2000 mg/kg, po administered as single dose and measured after 2 weeks by hematoxylin and eosin staining based analysis; assay type: organism-based; details: in vivo, 336 h
[28] = Hepatotoxicity in human HepG2 cells assessed as reduction in cell viability at 20 to 100 uM incubated for 24 hrs by MTT assay; assay type: toxicity, cell-based; details: hepg2, 24 h, dose 20-100 µM
[29] = test system: PC-12; test: Antioxidant activity in H2O2-induced rat PC12 cells assessed as reduction in intracellular ROS level incubated for 1 hr followed by H2O2 addition and measured after 5 hrs by DCFH-DA staining based laser confocal microscopy; assay type: functional, cell-based; details: dose 10-20 µM, time 6.0 hrs
[30] = Acute toxicity in C57BL mouse assessed as liver damage upto 2000 mg/kg, po administered as single dose and measured after 2 weeks by hematoxylin and eosin staining based analysis; assay type: organism-based; details: in vivo, 336 h
[31] = molecular target: T1, Acetylcholinesterase; test: Inhibition of electric eel AChE assessed as dissociation constant using acetylthiocholine iodide as substrate pre-incubated for 30 mins followed by substrate addition and measured after 5 mins by DTNB reagent based Ellman's method
[32] = test system: PC-12; test: Neuroprotective activity against H2O2-induced cell death in rat PC12 cells assessed as increase in survival rate pre-incubated for 3 hrs followed by H2O2 addition and measured after 24 hrs by MTT assay; assay type: functional, cell-based; details: dose 1-20 µM, time 27.0 hrs
[33] = molecular target: T1, Acetylcholinesterase; test: Inhibition of electric eel AChE

Sequence of Cholinesterase (P81908 whole entry): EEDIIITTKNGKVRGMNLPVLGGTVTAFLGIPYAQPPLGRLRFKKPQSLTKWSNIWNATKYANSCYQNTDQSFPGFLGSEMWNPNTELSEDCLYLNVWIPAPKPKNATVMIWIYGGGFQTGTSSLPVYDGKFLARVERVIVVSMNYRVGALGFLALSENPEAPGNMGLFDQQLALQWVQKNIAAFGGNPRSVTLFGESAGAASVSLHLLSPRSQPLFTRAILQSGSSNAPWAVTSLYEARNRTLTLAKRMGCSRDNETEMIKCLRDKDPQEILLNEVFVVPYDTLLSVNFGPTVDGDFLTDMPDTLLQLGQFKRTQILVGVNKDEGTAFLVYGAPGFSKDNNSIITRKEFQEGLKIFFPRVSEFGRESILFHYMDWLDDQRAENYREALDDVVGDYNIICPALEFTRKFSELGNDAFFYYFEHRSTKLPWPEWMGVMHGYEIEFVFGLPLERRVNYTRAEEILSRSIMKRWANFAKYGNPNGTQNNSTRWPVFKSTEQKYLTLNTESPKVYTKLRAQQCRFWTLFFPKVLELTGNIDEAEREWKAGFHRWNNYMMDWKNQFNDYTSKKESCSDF
T1 sequence (O42275 whole entry): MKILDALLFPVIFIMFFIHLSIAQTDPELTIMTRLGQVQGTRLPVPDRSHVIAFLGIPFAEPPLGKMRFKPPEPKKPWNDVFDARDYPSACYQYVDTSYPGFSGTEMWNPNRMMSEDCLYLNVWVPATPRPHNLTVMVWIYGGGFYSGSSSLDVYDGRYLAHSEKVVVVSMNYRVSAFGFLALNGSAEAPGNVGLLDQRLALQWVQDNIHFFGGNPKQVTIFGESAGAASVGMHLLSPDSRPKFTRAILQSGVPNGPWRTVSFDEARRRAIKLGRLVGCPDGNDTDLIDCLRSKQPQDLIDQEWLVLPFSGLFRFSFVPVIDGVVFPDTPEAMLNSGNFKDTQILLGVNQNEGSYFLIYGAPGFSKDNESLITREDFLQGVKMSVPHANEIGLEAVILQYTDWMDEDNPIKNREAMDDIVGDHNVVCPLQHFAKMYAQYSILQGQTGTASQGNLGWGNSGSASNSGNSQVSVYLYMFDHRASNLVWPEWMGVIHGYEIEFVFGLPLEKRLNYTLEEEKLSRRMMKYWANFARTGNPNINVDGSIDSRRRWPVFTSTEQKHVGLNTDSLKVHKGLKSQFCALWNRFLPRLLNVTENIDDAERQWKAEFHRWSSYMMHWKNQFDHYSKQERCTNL
Sequence of Acetylcholinesterase (Electrophorus electricus) (O42275 24-633 limits assumed): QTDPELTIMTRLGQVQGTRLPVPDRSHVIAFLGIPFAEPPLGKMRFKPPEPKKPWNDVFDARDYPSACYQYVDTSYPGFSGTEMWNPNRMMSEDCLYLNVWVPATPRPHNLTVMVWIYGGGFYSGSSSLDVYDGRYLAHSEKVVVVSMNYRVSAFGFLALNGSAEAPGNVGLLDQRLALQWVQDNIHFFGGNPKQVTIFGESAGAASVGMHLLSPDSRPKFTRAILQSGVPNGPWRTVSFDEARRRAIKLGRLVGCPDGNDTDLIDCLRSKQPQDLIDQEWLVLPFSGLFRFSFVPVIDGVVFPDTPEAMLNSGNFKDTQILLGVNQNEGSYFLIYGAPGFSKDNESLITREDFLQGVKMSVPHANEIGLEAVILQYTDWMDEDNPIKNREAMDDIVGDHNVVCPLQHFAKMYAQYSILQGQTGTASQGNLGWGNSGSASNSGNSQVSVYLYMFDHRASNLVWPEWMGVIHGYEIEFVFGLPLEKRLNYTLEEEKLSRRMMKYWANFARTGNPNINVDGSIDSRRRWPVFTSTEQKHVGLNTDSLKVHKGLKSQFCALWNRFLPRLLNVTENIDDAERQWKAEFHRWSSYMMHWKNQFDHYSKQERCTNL
Sequence of Acetylcholinesterase (Homo sapiens, UniProt P22303) (P22303 whole entry): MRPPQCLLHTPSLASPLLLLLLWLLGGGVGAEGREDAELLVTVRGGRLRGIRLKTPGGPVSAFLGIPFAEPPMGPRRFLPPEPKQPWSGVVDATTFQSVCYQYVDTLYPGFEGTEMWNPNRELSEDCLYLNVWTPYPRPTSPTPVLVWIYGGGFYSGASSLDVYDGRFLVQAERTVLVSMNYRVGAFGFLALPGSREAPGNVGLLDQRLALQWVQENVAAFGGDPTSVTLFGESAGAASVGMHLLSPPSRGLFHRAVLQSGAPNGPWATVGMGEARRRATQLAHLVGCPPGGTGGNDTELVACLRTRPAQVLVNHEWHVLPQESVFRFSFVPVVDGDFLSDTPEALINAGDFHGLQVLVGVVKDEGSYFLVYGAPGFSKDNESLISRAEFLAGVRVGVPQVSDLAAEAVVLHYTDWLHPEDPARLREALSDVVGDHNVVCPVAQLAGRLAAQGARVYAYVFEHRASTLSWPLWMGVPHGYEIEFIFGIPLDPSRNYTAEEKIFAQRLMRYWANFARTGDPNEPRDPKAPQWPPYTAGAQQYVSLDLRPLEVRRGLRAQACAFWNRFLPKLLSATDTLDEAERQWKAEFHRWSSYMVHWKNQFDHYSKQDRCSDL

O=C(CNS(=O)(=O)c1ccccc1OC(F)(F)F)Nc1ccc2c(=O)n3c(nc2c1)CCC3
IC50 [1]: > 50 µM
IC50 [2]: 0.78 µM

COc1ccc2[nH]c(C(=O)Nc3ccc4nc5n(c(=O)c4c3)CCC5)cc2c1
IC50 [3]: 0.12 µM

O=C(CNS(=O)(=O)c1cccc(C(F)(F)F)c1)Nc1ccc2c(=O)n3c(nc2c1)CCC3
IC50 [1]: > 50 µM
IC50 [2]: 20.9 µM

Cc1ccc(S(=O)(=O)NCC(=O)Nc2ccc3c(=O)n4c(nc3c2)CCC4)cc1
IC50 [1]: > 50 µM
IC50 [2]: 17.6 µM

O=C(CNS(=O)(=O)c1cccc(F)c1)Nc1ccc2c(=O)n3c(nc2c1)CCC3
IC50 [1]: > 50 µM
IC50 [2]: 4.43 µM

CC(C)(C)c1ccc(S(=O)(=O)NCC(=O)Nc2ccc3c(=O)n4c(nc3c2)CCC4)cc1
IC50 [1]: > 50 µM
IC50 [2]: > 50 µM

O=C(CNS(=O)(=O)c1ccccc1F)Nc1ccc2c(=O)n3c(nc2c1)CCC3
IC50 [1]: > 50 µM
IC50 [2]: 5.25 µM

COc1ccc(S(=O)(=O)NCC(=O)Nc2ccc3c(=O)n4c(nc3c2)CCC4)cc1OC
IC50 [1]: > 50 µM
IC50 [2]: 10.4 µM

CCCc1ccc(S(=O)(=O)NCC(=O)Nc2ccc3c(=O)n4c(nc3c2)CCC4)cc1
IC50 [1]: > 50 µM
IC50 [2]: > 50 µM

O=C(CNS(=O)(=O)c1ccc(Br)cc1)Nc1ccc2c(=O)n3c(nc2c1)CCC3
IC50 [1]: > 50 µM
IC50 [2]: > 50 µM

O=C(CNS(=O)(=O)c1cccc(Br)c1)Nc1ccc2c(=O)n3c(nc2c1)CCC3
IC50 [1]: > 50 µM
IC50 [2]: 7.88 µM

COc1ccc(S(=O)(=O)NCC(=O)Nc2ccc3c(=O)n4c(nc3c2)CCC4)cc1
IC50 [1]: 32.9 µM
IC50 [2]: 5.58 µM

COc1ccc(S(=O)(=O)NCC(=O)Nc2ccc3c(=O)n4c(nc3c2)CCC4)c(OC)c1
IC50 [1]: > 50 µM
IC50 [2]: 9.19 µM

NS(=O)(=O)c1cc2c(cc1Cl)N=CNS2(=O)=O [CHLOROTHIAZIDE]
Papp at 50 µM [4]: 1.36 ×10⁻⁶ cm/s

O=C(CNS(=O)(=O)c1ccccc1Cl)Nc1ccc2c(=O)n3c(nc2c1)CCC3
IC50 [1]: > 50 µM
IC50 [2]: 2.57 µM

O=C(CNS(=O)(=O)c1ccccc1C(F)(F)F)Nc1ccc2c(=O)n3c(nc2c1)CCC3
Activity [5]: Dose-Dependent Effect
IC50 [1]: > 50 µM
Activity [6]: Non-Toxic
Activity [7]: Active
Activity [8]: Active
Activity [9]: Non-Toxic
IC50 [10]: 1.69 µM
Activity ([10]; time 25.0 hrs): Dose-Dependent Effect
Activity [11]: Active
Activity [12]: Non-Toxic
IC50 [13]: 3.34 µM
Activity ([13]; time 25.0 hrs): Dose-Dependent Effect
Activity [14]: Active
Papp at 50 µM [4]: 10.5 ×10⁻⁶ cm/s
IC50 [15]: 8.62 µM
Activity ([15]; time 25.0 hrs): Dose-Dependent Effect
Activity [16]: Active
Activity [17]: Non-Toxic
Activity [18]: Active
Activity [19]: Non-Toxic
Activity [20]: Non-Toxic
Activity [21]: Non-Toxic
Activity [22]: Dose-Dependent Effect
Activity [23]: Active
Activity [24]: inactive
IC50 [2]: 0.24 µM
inhibition [25]: Dose-Dependent Effect
Activity [26]: Active
Activity [27]: Non-Toxic
Activity [28]: Non-Toxic
Activity [29]: Dose-Dependent Effect
Activity [30]: Non-Toxic
Ki [31]: 0.24 µM
Activity [32]: Dose-Dependent Effect

O=C(CNS(=O)(=O)c1ccc(F)c(Cl)c1)Nc1ccc2c(=O)n3c(nc2c1)CCC3
IC50 [1]: > 50 µM
IC50 [2]: 8.08 µM

O=c1c2ccccc2nc2n1CCC2 [DEOXYVASICINONE]
IC50 [33]: 82.5 µM
Activity [17]: Non-Toxic
Activity [28]: Non-Toxic
